Results published in article PMC6923765, “Structural Design, Synthesis, and Preliminary Biological Evaluation of Novel Dihomooxacalix[4]arene-Based Anti-tumor Agents” (Frontiers in Chemistry, 2019).
Like-named read-outs stand apart in the source and are kept apart here.

Tests used:
[1] = tested on: A549 cells (human lung carcinoma cells); experiment: SRB cytotoxicity assay, A549 cells; type: cell-based
Protocol: (§1) A549 cells (human lung carcinoma cells), MCF-7 cells (human breast cancer cells), HeLa cells (human cervical cancer cells), HepG2 cells (human hepatocellular carcinoma cells), and HUVEC cells (human umbilical vein endothelial cells) were kindly provided by WeiFang Caleb Pharmaceuticals, Inc. A549 cells were cultured in Ham's F12K medium containing 10% fetal bovine serum, 2 mM L-glutamine, and 1.5 g/L sodium bicarbonate; MCF-7 cells were cultured on cell culture flask using RPMI 1640 medium with 2 mM L-glutamine adjusted to contain 1.5 g/L sodium bicarbonate, 4.5 g/L glucose, 10 mM HEPES, 1.0 mM sodium pyruvate, and 10% fetal bovine serum. Hela cells were cultured on Cell culture flask using 2 mM L-glutamine adjusted to contain 1.5 g/L sodium bicarbonate, 4.5 g/L glucose, 10 mM HEPES, and 1.0 mM sodium pyruvate in RPMI 1640 medium supplemented with 0.5 mg/ml G418 and 10% fetal bovine serum. HepG2 cells were cultured in minimum essential medium (Eagle) with 2 mM L-glutamine, Earle's BSS, 1.5 g/L sodium bicarbonate, 0.1 mM non-essential amino acids, 1.0 mM sodium pyruvate, and 10% fetal bovine serum. HUVEC cells were cultured in M199 medium containing 2 mM L-glutamine adjusted to contain 1.5 g/L sodium bicarbonate, 4.5 g/L glucose, 10 mM HEPES, 1.0 mM sodium pyruvate, ECGS, and 10% fetal bovine serum. All cells were cultured at 37°C in 5% CO2.
(§2) The cell proliferation of adherent cells was determined by sulforhodamine B assay (SRB) (Quan et al., [2009]; Li et al., [2017]). All cells were cultured in culture medium containing 10% fetal bovine serum and have been in the logarithmic growth phase. All cell types were seeded in a 96-well culture plate at a concentration of 1–5 × 10^4 cells per well at 37°C in a 5% CO2 incubator for 24 h. The cells were then exposed to seven drug concentrations of dihomooxacalix[4]arene derivatives for 72 h with each concentration located in three wells. Then, the cells were fixed with trichloroacetic acid (TCA). After washing, SRB working solution was added to the cells to […]. SRB combined with protein was dissolved in Tris base. OD values were measured for each well with a SPECTRA max 190 Cell microplate reader under 540 nm wavelength. According to the OD value, the cell growth inhibition rate was calculated.

[2] = tested on: MCF-7 cells (human breast cancer cells); experiment: SRB cytotoxicity assay, MCF-7 cells; type: cell-based; settings: for inhibition at 10 µM: MCF7, 10 μM, 72 h
Protocol: as §1, §2

[3] = tested on: HeLa cells (human cervical cancer cells); experiment: SRB cytotoxicity assay, HeLa cells; type: cell-based
Protocol: as §1, §2

[4] = tested on: HepG2 cells (human hepatocellular carcinoma cells); experiment: SRB cytotoxicity assay, HepG2 cells; type: cell-based
Protocol: as §1, §2

[5] = tested on: HUVEC cells (human umbilical vein endothelial cells); experiment: SRB cytotoxicity assay, HUVEC normal cells; type: cell-based
Protocol: as §1, §2

[6] = 72 h, SRB, read-out: IC50 (μM) A549
[7] = Homo sapiens, HUVEC, 72 h, 10 μM, SRB, toxicity to normal cells
[8] = MCF7, 72 h, SRB, read-out: IC50 (μM) MCF-7
[9] = 72 h, SRB, read-out: IC50 (μM) HeLa
[10] = 72 h, SRB, read-out: IC50 (μM) HepG2

melting point	SMILES	inhibition at 10 µM ([1]; 72 h, SRB)	IC50 [1, 6]	inhibition at 10 µM ([2]; SRB)	inhibition at 10 µM ([3]; 72 h, SRB)	inhibition at 10 µM ([4]; 72 h, SRB)	inhibition at 10 µM [5, 7]	IC50 [2, 8]	IC50 [3, 9]	IC50 [4, 10]	% inhibition at 10 μM HUVEC ([5]; 10 μM, 72 h, SRB, toxicity to normal cells)	IC50 ([1]; printed in the % inhibition column of Table 1, read-out: IC50 A549 (positive control))	IC50 ([2]; MCF7, printed in the % inhibition column of Table 1, read-out: IC50 MCF-7 (positive control))	IC50 ([3]; HeLa, printed in the % inhibition column of Table 1, read-out: IC50 HeLa (positive control))	IC50 ([4]; printed in the % inhibition column of Table 1, read-out: IC50 HepG2 (positive control))	IC50 ([5]; Homo sapiens, HUVEC, printed in the % inhibition column of Table 1, read-out: IC50 HUVEC (positive control))
114.6 to 115.9 °C	CC(C)(C)c1cc2c(O)c(c1)Cc1cc(C(C)(C)C)cc(c1OCC(=O)NCCc1ccccc1)Cc1cc(C(C)(C)C)cc(c1O)Cc1cc(C(C)(C)C)cc(c1OCC(=O)NCCc1ccccc1)COC2 [Compound 4O, 7,13,19,25-tetra-tert-butyl-28,30-di-hydroxy-27,29-di-(N-phenethyl-aminocarbonylmethoxyl)-2,3-dihomo-3-oxacalix [4]arene]	63%	12.6 ± 2 µM	45%	60%	9%	35%									
120.7 to 123.3 °C	CC(C)(C)c1cc2c(O)c(c1)Cc1cc(C(C)(C)C)cc(c1OCC(=O)NCCO)Cc1cc(C(C)(C)C)cc(c1O)Cc1cc(C(C)(C)C)cc(c1OCC(=O)NCCc1ccccc1)COC2 [Compound 4R, 7,13,19,25-tetra-tert-butyl-28,30-di-hydroxy-27-(N-phenethyl-aminocarbonylmethoxyl)-29-(N-(2-hydroxyethyl)-aminocarbonylmethoxyl)-2,3-dihomo-3-oxacalix[4]arene]															
128.1 to 130.8 °C	CC(C)CNC(=O)COc1c2cc(C(C)(C)C)cc1Cc1cc(C(C)(C)C)cc(c1O)Cc1cc(C(C)(C)C)cc(c1OCC(=O)NCC(C)C)Cc1cc(C(C)(C)C)cc(c1O)COC2 [Compound 4J, 7,13,19,25-tetra-tert-butyl-28,30-di-hydroxy-27,29-di-(N-isobutyl-aminocarbonylmethoxyl)-2,3-dihomo-3-oxacalix [4]arene]	54%	16.9 ± 3.2 µM	40%	35%	10%	0%									
117.4 to 120.1 °C	COc1ccc(CCNC(=O)COc2c3cc(C(C)(C)C)cc2Cc2cc(C(C)(C)C)cc(c2O)Cc2cc(C(C)(C)C)cc(c2OCC(=O)NCCc2ccc(OC)c(OC)c2)Cc2cc(C(C)(C)C)cc(c2O)COC3)cc1OC [Compound 4P, 7,13,19,25-tetra-tert-butyl-28,30-di-hydroxy-27,29-di-(N-(3,4-dimethoxyphenethyl)-aminocarbonylmethoxyl)-2,3-dihomo-3-oxacalix [4]arene]	22%		0%	37%	11%	0%									
117.7 to 119.3 °C	CCCCCNC(=O)COc1c2cc(C(C)(C)C)cc1Cc1cc(C(C)(C)C)cc(c1O)Cc1cc(C(C)(C)C)cc(c1OCC(=O)NCCCCC)Cc1cc(C(C)(C)C)cc(c1O)COC2 [Compound 4L, 7,13,19,25-tetra-tert-butyl-28,30-di-hydroxy-27,29-di-(N-pentyl-aminocarbonylmethoxyl)-2,3-dihomo-3-oxacalix[4] arene]	66%	1.7 ± 0.4 µM	41%	49%	18%	12%									
138.3 to 140.5 °C	CC(C)(C)c1cc2c(O)c(c1)Cc1cc(C(C)(C)C)cc(c1OCC(=O)NCCO)Cc1cc(C(C)(C)C)cc(c1O)Cc1cc(C(C)(C)C)cc(c1OCC(=O)NC1CCCC1)COC2 [Compound 4Q, 7,13,19,25-tetra-tert-butyl-28,30-di-hydroxy-27-(N-clopentyl-aminocarbonylmethoxyl)-29-(N-(2-hydroxyethyl)-aminocarbonylmethoxyl)-2,3-dihomo-3-oxacalix[4]arene]															
157.6 to 158.7 °C	CC(C)(C)c1cc2c(O)c(c1)Cc1cc(C(C)(C)C)cc3c1OCC(=O)NCCCCNC(=O)COc1c(cc(C(C)(C)C)cc1Cc1cc(C(C)(C)C)cc(c1O)C3)COC2 [Compound 4G]	21%		34%	40%	16%	34%									
119.5 to 120.8 °C	CCCCNC(=O)COc1c2cc(C(C)(C)C)cc1Cc1cc(C(C)(C)C)cc(c1O)Cc1cc(C(C)(C)C)cc(c1OCC(=O)NCCCC)Cc1cc(C(C)(C)C)cc(c1O)COC2 [Compound 4K, 7,13,19,25-tetra-tert-butyl-28,30-di-hydroxy-27,29-di-(N-butyl-aminocarbonylmethoxyl)-2,3-dihomo-3-oxacalix[4] arene]	65%	4.5 ± 1.4 µM	41%	42%	6%	1%									
138.9 to 141.2 °C	CCNC(=O)COc1c2cc(C(C)(C)C)cc1Cc1cc(C(C)(C)C)cc(c1O)Cc1cc(C(C)(C)C)cc(c1OCC(=O)NCC)Cc1cc(C(C)(C)C)cc(c1O)COC2 [Compound 4H, 7,13,19,25-tetra-tert-butyl-28,30-di-hydroxy-27,29-di-(N-ethyl-aminocarbonylmethoxyl)-2,3-dihomo-3-oxacalix [4]arene]	31%		37%	41%	31%	6%									
189.5 to 191.4 °C	CC(C)(C)c1cc2c(O)c(c1)Cc1cc(C(C)(C)C)cc3c1OCC(=O)NCCCNC(=O)COc1c(cc(C(C)(C)C)cc1Cc1cc(C(C)(C)C)cc(c1O)C3)COC2 [Compound 4F]	63%	2.9 ± 0.7 µM	46%	59%	9%	42%									
210.7 to 212.5 °C	CC(C)(C)c1cc2c(O)c(c1)Cc1cc(C(C)(C)C)cc(c1OCC(=O)N(CCO)CCO)Cc1cc(C(C)(C)C)cc(c1O)Cc1cc(C(C)(C)C)cc(c1OCC(=O)N(CCO)CCO)COC2 [Compound 4B, 7,13,19,25-tetra-tert-butyl-28,30-di-hydroxy-27,29-di-(N,N-bis(2-hydroxyethyl)-aminocarbonylmethoxyl)-2,3-dihomo−3-oxacalix[4]arene]	66%	3.9 ± 0.5 µM	73%	100%	39%	23%	4.4 ± 0.7 µM	1.1 ± 0.5 µM	3.8 ± 0.3 µM						
144.4 to 146.2 °C	CC(C)(C)c1cc2c(O)c(c1)Cc1cc(C(C)(C)C)cc(c1OCC(=O)NCCO)Cc1cc(C(C)(C)C)cc(c1O)Cc1cc(C(C)(C)C)cc(c1OCC(=O)N(CCO)CCO)COC2 [Compound 4S, 7,13,19,25-tetra-tert-butyl-28,30-di-hydroxy-27-(N,N-bis(2-hydroxyethyl)-aminocarbonylmethoxyl)-29-(N-(2-hydroxyethyl)-aminocarbonylmethoxyl)-2,3-dihomo-3-oxacalix[4]arene]															
	CC(C)(C)c1cc2c(O)c(c1)Cc1cc(C(C)(C)C)cc(c1OCC(=O)NCCO)Cc1cc(C(C)(C)C)cc(c1O)Cc1cc(C(C)(C)C)cc(c1OCC(=O)NCCO)C2 [CLX-4, 5,11,17,23-tetra-tert-butyl-25,27-bis [N-(2-hydroxyethyl)aminocarbonylmethoxyl] calix[4]arene, reference compound]	93%	2.8 ± 0.3 µM	99%	92%	94%	18%	2.1 ± 0.4 µM	1.9 ± 0.2 µM	6.6 ± 0.8 µM	16%					
	CC(=O)O[C@H]1C(=O)[C@@]2(C)[C@H]([C@H](OC(=O)c3ccccc3)[C@]3(O)C[C@H](OC(=O)[C@H](O)[C@@H](NC(=O)c4ccccc4)c4ccccc4)C(C)=C1C3(C)C)[C@]1(OC(C)=O)CO[C@@H]1C[C@@H]2O [Paclitaxel, paclitaxel, reference compound]											0.00059 µM	0.0008 µM	0.0027 µM	0.005 µM	1 nM
